Laboratory results taken from BigSolDB 2.1.

CO[C@@]1(NC(=O)CSCC#N)C(=O)N2C(C(=O)O)=C(CSc3nnnn3C)CS[C@@H]21
solubility (mole fraction)
Conditions | 278.15 K | 283.15 K | 288.15 K | 293.15 K | 298.15 K | 303.15 K
in ethanol | 0.000266 | 0.000276 | 0.000343 | 0.000435 | 0.00049 | 0.000659
in methanol | 0.00163 | 0.00187 | 0.00222 | 0.00273 | 0.00364 | 0.00445
